SMILES strings stand for the structures.

The target of data set [1] is T1, NOP (nociceptin) receptor (Homo sapiens, UniProt P41146).
In data set [2] the target is T2, δ-opioid receptor (Mus musculus, UniProt P32300).
T2 construct: hemagglutinin (HA); expressed in transfected cells
Kind of data set: biochemical. The format is biochemical, human.

For data set [3], the target named is CYP3A4 (Homo sapiens, UniProt P08684). Kind of data set: CYP inhibition, CYP3A4 (testosterone 6-hydroxylation). As to conditions: 10 μM test compound; ND = no detectable inhibition.
Data set [4] addresses T3, κ-opioid receptor (Mus musculus, UniProt P33534).
T3 construct: FLAG; expressed in transfected cells
Kind of data set: biochemical. The format is biochemical, human.

The target in data set [5] is T1, NOP (nociceptin) receptor. Kind of data set: Stimulation of [35S]GTPγS binding (agonist activity), NOP. As to conditions: read-out: EC50, NOP, stimulation of [35S]GTPγS binding; cells printed in μM.
In data set [6] the target is T4, μ-opioid receptor (Mus musculus, UniProt P42866).
T4 construct: FLAG; expressed in transfected cells
Kind of data set: biochemical. The format is biochemical, human.

In data set [7] the target is T1, NOP (nociceptin) receptor. Kind of data set: Inhibition of basal [35S]GTPγS binding (inverse agonism), NOP. The format is biochemical. Details: FLAG; expressed in transfected cells.
The target in data set [8] is T2, δ-opioid receptor. Kind of data set: biochemical. Details: species or system human. As to conditions: percentage of basal [35S]GTPγS binding stimulation. (In general: Binding of GTPγS marks nucleotide exchange on a G protein.)
The target in data set [9] is T3, κ-opioid receptor. Kind of data set: biochemical. Details: species or system human. As to conditions: percentage of basal [35S]GTPγS binding stimulation.
The target in data set [10] is T4, μ-opioid receptor. Kind of data set: biochemical. Details: species or system human. As to conditions: percentage of basal [35S]GTPγS binding stimulation.
For data set [11], the target named is CYP2C9 (Homo sapiens, UniProt P11712). Kind of data set: CYP inhibition, CYP2C9 (diclofenac hydroxylase). As to conditions: 10 μM test compound; ND = no detectable inhibition.
Data set [12] addresses T5, CYP2B6 (Homo sapiens, UniProt P20813).
T5 sequence (P20813 1-491): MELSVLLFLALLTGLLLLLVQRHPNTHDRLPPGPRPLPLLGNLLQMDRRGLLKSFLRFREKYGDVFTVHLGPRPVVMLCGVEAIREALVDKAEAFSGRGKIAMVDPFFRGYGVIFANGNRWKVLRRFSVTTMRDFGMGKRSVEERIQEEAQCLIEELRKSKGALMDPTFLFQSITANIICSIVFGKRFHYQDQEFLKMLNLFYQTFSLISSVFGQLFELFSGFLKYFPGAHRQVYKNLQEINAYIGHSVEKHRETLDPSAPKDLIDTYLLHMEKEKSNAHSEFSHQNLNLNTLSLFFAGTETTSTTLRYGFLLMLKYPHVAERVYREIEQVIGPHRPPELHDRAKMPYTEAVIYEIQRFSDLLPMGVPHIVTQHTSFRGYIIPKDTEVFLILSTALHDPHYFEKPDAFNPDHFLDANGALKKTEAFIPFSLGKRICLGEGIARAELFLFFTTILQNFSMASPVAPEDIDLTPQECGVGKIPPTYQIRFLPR
Kind of data set: CYP inhibition, CYP2B6 (Vivid Blue substrate). As to conditions: 10 μM test compound; ND = no detectable inhibition.

Data set [13] has as its target CYP2D6 (Homo sapiens, UniProt P10635). Kind of data set: CYP inhibition, CYP2D6 (Vivid Blue substrate). As to conditions: 10 μM test compound; ND = no detectable inhibition.
The target of data set [14] is CYP2C19 (Homo sapiens, UniProt P33261). Kind of data set: CYP inhibition, CYP2C19 (Vivid Blue substrate). As to conditions: 10 μM test compound; ND = no detectable inhibition.
Chain of CYP2C19 (P33261 whole entry): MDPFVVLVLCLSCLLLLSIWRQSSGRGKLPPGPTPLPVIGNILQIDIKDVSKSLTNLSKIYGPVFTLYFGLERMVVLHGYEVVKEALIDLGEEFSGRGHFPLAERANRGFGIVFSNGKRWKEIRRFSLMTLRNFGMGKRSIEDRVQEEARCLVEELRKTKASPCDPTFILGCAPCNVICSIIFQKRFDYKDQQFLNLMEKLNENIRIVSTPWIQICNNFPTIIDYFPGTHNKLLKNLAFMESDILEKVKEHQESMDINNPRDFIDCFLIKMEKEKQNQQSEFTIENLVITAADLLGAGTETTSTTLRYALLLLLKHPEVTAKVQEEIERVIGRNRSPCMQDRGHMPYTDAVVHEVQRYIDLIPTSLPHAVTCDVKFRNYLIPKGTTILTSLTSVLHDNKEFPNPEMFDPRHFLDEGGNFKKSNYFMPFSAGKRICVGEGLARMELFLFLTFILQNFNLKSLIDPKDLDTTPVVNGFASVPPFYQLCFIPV

T1 sequence (P41146 whole entry): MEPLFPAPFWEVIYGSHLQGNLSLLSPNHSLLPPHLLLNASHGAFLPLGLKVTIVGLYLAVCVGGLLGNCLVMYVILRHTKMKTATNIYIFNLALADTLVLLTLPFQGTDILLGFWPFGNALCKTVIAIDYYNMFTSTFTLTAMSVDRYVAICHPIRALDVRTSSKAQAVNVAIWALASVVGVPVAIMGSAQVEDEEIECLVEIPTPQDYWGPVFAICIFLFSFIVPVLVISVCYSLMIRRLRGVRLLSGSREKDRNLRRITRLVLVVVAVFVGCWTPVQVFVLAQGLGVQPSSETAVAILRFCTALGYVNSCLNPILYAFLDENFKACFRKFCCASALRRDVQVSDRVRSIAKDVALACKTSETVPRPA
T4 sequence (P42866 whole entry): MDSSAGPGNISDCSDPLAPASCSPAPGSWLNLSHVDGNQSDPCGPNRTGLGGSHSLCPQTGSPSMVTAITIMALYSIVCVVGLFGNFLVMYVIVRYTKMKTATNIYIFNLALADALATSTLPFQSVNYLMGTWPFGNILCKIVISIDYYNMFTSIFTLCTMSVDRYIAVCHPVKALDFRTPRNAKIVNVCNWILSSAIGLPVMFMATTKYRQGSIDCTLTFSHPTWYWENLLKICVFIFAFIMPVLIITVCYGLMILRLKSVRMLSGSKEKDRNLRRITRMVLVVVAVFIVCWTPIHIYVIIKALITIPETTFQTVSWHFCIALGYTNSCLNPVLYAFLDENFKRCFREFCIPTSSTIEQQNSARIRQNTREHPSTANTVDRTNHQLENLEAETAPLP
T3 sequence (P33534 whole entry): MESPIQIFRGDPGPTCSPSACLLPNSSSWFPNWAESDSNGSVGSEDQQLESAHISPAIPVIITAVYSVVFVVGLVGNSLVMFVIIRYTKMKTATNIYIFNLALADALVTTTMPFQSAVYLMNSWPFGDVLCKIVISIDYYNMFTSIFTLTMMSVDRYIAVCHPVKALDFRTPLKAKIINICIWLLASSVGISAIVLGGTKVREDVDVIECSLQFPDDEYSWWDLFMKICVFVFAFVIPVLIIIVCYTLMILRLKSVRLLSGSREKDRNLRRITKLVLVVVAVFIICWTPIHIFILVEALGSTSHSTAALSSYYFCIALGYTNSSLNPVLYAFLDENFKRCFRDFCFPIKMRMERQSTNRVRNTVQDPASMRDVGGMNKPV
T2 sequence (P32300 whole entry): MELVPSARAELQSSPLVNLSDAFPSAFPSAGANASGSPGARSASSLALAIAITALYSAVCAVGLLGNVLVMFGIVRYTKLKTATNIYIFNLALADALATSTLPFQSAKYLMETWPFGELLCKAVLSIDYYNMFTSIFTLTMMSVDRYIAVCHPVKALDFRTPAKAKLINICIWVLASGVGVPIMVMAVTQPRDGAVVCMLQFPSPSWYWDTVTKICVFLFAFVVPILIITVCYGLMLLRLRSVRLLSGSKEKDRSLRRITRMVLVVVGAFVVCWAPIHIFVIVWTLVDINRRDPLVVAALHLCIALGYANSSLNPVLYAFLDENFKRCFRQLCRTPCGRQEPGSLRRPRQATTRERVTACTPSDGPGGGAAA
Chain of CYP3A4 (P08684 whole entry): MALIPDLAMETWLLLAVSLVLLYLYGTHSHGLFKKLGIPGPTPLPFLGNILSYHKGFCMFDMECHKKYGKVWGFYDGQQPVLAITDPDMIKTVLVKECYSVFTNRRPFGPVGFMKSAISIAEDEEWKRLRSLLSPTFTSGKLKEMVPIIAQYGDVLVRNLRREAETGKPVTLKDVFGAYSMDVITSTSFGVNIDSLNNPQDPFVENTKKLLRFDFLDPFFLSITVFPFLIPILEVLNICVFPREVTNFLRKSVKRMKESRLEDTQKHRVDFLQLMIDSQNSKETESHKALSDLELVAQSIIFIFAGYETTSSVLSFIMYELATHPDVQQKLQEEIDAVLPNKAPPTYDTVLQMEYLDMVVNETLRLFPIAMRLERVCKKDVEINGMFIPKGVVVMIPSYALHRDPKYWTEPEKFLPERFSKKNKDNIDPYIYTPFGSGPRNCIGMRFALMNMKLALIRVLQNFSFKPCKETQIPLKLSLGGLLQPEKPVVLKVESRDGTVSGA
Chain of CYP2D6 (P10635 whole entry): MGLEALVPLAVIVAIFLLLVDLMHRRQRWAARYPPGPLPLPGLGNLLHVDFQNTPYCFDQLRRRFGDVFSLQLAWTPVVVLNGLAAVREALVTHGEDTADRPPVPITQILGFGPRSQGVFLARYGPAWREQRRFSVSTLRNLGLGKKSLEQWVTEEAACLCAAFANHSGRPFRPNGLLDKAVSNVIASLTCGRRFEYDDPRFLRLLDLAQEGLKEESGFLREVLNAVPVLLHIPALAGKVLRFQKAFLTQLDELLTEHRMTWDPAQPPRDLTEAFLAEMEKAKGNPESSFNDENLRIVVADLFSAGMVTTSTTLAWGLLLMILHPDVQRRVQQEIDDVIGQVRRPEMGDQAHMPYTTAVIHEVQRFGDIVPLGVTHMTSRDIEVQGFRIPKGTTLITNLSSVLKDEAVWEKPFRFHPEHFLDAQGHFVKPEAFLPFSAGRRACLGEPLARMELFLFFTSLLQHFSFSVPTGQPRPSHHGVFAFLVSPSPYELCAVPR
Chain of CYP2C9 (P11712 whole entry): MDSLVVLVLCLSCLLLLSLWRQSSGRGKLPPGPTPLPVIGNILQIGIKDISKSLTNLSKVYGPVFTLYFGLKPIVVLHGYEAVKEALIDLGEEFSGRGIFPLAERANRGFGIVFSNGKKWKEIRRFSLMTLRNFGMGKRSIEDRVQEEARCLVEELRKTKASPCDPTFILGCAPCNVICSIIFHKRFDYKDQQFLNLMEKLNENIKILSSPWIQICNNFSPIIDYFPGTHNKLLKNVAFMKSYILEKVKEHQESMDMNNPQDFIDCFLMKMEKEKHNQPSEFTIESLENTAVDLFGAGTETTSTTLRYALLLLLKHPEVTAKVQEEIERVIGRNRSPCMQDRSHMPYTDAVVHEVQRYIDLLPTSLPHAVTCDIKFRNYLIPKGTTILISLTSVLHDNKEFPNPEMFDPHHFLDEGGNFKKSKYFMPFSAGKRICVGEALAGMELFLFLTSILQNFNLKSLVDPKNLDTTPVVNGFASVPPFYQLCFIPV

The compound `O=C(N[C@@H]1CC[C@@]2(O)[C@H]3Cc4ccc(O)c5c4[C@@]2(CCN3CC2CC2)[C@H]1O5)c1ccc(Cl)c(Cl)c1` [Compound 9, 6-β-(3′,4′-Dichloro)benzamido-14-hydroxy-17-(cyclopropylmethyl)nordesmorphine] came in with an Emax in [1] of 0%. Besides, the “Emax, δ, inhibition of basal [35S]GTPγS binding” value in data set [2] came out at 0%. Also, the “Percent Inhibition CYP3A4” value in data set [3] amounted to 11%. Besides, the “Emax, κ, inhibition of basal [35S]GTPγS binding” value in data set [4] is reported as 0%. Also, the EC50 in data set [5] is above 10 µM. Also, in data set [6], the “Emax, μ, inhibition of basal [35S]GTPγS binding” value is listed as 0%. Besides, in [7], the EC50 is 0.1 nM and the “Emax, NOP, inhibition of basal [35S]GTPγS binding” value is recorded as 87 ± 6.9%. For the same compound, in data set [8], the “Emax, δ, stimulation of [35S]GTPγS binding” value is recorded as 85 ± 35%. The “Emax, κ, stimulation of [35S]GTPγS binding” value in [9] stood at 80 ± 7.4%. In addition, the “Emax, μ, stimulation of [35S]GTPγS binding” value in data set [10] is listed as 85 ± 7.4%. For the same compound, the “Percent Inhibition CYP2C9” value in [11] was found to be 7%. In data set [12], the “Percent Inhibition CYP2B6” value was determined as 5%. For the same compound, the “Percent Inhibition CYP2D6” value in data set [13] stood at 10%. For the same compound, the “Percent Inhibition CYP2C19” value in [14] was 39%.

In general, Emax refers to the greatest response seen or fitted, relative to the assay's reference. What is called EC50 is the midpoint of the concentration-response curve.

The values above are taken from US8778958B2, “Synthesis of metabolically stable agents for alcohol and drug abuse” (priority 2008, dated 2014).
